In patent US20240239801A1, “PYRIMIDO[5,4,D]PYRIMIDINE COMPOUNDS, COMPOSITIONS COMPRISING THEM AND USES THEREOF” (Université de Montréal, priority 2021, published 2024):

What was measured:
[1] = target: T1, BRAF (Homo sapiens, UniProt P15056); assay: BRAF kinase activity assay (ADP-Glo); type: biochemical
T1 construct: GST; purchased Millipore Sigma B4062-10UG
Procedure: (§1) Compound preparation: solid samples of each substances in 1dram vials were suspended in DMSO (Fisher Scientific) at a stock concentration of 20 mM. Stocks were kept at −20° C. and protected from light. If solubility of the compound at 20 mM appeared to be an issue, the initial concentration of the DMSO stock was changed to 10 mM or 5 mM.
(§2) In vitro enzymatic reactions were used for evaluating compounds intrinsic activity against BRAF, CRAF and ARAF. For BRAF and CRAF, 0.375 nM of purified GST-tagged kinases (cat #B4062-10UG and cat #R1656-10UG respectively from Millipore Sigma) were incubated with 75 nM of kinase-dead MEK1 substrate (cat #40075; BPS Bioscience) in the presence of 10 μM of Ultrapure ATP (cat #V9102; Promega; part V915A) with and without the test compound in a buffer containing 50 mM HEPES pH 7.5, 10 mM MgCl2, 1 mM EDTA, 0.01% Brij-35 and 2 mM DTT. Separate reactions were performed with the MEK1 substrate and ATP as a blank control. ARAF, kinase reactions were rigorously the same with the exception that kinase concentration was raised to 3.75 nM (cat #1768-0000-1; Reaction Biology).
(§3) For compound treatment, 5 μL/well of test substance solution are placed in a 384-well proxyplate (Perkin Elmer) and mixed with 2× concentrated kinase reactions. The dilution series is selected so that nine concentrations cover a range from 100 nM to 0.01 nM. […] The final concentration of DMSO in the assay is set at 0.05%.
(§4) BRAF and CRAF kinase reactions were carried out for a total of 2 hours at 30° C. and then stopped by ½ dilution in ADP-Glo Reagent (cat #V9102; Promega; part V912C). Reactions were then incubated for 1 h at room temperature before addition of one volume of Kinase Detection Reagent (cat #V9102; Promega; part V917A). Plates were then equilibrated at room temperature for 30 minutes before detection of luminescence on a Synergy Neo2 plate reader (Biotek). The effect of each compound dilution on BRAF and CRAF kinase activity was expressed as % inhibition and calculated as follows. First, the internal 100% inhibition control (average of luminescence in kinase reactions comprising kinase dead MEK1 substrate alone) was subtracted from each data point. The average of DMSO (vehicle) controls (set as 0% inhibition) was established and used to calculate % inhibition:
(§5) IC50 values were obtained by plotting the kinase inhibition values and fitting the dose-activity curves using a log(agonist) versus response−variable slope (four parameters) function using either GraphPadPrism (V7.0) or Dotmatics Screening Ultra platform. Standards included in the ARAF kinase assay were Belvarafenib (MedChem Express cat #HY-109080; CAS #1446113-23-0), LXH254 (MedChem Express cat #HY-112089; CAS #1800398-38-2) and BGB283 (cat #HY-18957; CAS #1446090-79-4).

[2] = target: CRAF (Homo sapiens, UniProt P04049); assay: CRAF kinase activity assay (ADP-Glo); type: biochemical
Procedure: as §1, §2, §3, §4, §5

[3] = tested on: HCT116 pERK; assay: Phospho-ERK inhibition, AlphaLISA SureFire Ultra p-ERK 1/2; type: cell-based, human; conditions: for HCT116 (Ymin %): lowest value of the pERK IC50 curve; for HCT116 pERK % Ymin (lowest value of the IC50 curve): value in brackets, Ymin above −20% = minimal or no paradoxical induction
How it was run: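 IC50 derived by four-parameter fitting of % inhibition, with DMSO as 0% and 1 μM trametinib subtracted as background. Signal is AlphaLISA p-ERK1/2 (Thr202/Tyr204) in lysates of overnight-seeded cells (RPMI-1640, 5% FBS) treated 1 h with ten concentrations from 30 or 10 μM to 0.33 nM, 0.5% DMSO.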

T1 sequence (P15056 whole entry): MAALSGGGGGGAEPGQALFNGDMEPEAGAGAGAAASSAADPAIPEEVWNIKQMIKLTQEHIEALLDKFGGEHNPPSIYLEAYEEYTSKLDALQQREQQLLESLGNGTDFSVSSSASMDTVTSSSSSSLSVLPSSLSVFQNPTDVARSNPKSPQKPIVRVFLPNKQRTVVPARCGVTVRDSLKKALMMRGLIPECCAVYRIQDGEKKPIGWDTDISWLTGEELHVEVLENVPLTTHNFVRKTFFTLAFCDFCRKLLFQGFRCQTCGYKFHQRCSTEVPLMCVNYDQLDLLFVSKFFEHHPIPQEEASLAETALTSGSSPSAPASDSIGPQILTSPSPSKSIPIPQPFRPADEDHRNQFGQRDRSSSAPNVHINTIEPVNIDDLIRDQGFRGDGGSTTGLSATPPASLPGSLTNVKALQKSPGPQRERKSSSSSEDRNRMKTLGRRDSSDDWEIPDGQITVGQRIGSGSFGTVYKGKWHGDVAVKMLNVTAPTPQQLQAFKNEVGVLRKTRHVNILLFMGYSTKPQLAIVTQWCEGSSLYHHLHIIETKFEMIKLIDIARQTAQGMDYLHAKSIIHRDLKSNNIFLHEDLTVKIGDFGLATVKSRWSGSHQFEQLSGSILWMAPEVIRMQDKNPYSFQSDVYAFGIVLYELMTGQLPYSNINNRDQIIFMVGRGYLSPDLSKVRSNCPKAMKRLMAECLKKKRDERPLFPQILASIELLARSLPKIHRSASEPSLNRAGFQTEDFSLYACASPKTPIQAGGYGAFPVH
Sequence of CRAF (P04049 whole entry): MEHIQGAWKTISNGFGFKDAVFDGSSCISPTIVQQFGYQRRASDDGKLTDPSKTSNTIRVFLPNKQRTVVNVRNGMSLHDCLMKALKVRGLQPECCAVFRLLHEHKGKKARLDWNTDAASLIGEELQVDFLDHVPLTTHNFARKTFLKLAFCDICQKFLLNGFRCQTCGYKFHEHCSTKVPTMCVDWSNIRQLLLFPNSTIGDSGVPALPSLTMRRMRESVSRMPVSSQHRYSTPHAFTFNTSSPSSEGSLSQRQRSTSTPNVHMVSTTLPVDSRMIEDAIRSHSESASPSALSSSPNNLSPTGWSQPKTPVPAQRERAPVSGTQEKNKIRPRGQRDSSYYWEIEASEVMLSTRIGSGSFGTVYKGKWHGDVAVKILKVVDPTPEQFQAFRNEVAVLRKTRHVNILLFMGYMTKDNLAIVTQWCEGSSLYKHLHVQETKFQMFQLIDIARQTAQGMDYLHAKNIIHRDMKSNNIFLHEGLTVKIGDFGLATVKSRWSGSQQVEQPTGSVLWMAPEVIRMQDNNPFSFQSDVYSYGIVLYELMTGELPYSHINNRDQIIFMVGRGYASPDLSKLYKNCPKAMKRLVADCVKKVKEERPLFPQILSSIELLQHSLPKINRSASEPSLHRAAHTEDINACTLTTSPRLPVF

| IC50 ([1]; Table 3) | IC50 ([2]; Table 3) | IC50 ([3]; Table 3, 1 h treatment) | IC50 ([3]; Homo sapiens, HCT-116, Table 3, 1 h treatment) | IC50 ([1]; BRAF biochemical kinase assay) | IC50 ([2]; CRAF biochemical kinase assay) | IC50 ([3]; HCT116 cells, pERK) | HCT116 pERK % Ymin (lowest value of the IC50 curve) ([3]; HCT116 cells) | Compound | HCT116 (Ymin %) ([3]; Table 3) |
| --- | --- | --- | --- | --- | --- | --- | --- | --- | --- |
| 1 to 10 nM | > 50 nM | 500 to 1000 nM | – | – | – | – | – | Cc1c(S(=O)(=O)Nc2ccc(F)c(Nc3ncnc4cnc(-n5cnc6ccccc65)nc34)c2F)ccc(F)c1F [Example 154] | 3% |
| < 1 nM | 10 to 50 nM | < 500 nM | – | – | – | – | – | Cc1c(F)cccc1S(=O)(=O)Nc1ccc(F)c(Nc2ncnc3cnc(-n4nc(C(=O)N5CCC[C@H](O)C5)c5ccccc54)nc23)c1F [Example 109] | −6.5% |
| 1 to 10 nM | < 10 nM | < 500 nM | – | – | – | – | – | CCC1(O)CCN(c2cccc3c2ncn3-c2ncc3ncnc(Nc4c(F)ccc(NS(=O)(=O)c5cccc(Cl)c5Cl)c4F)c3n2)CC1 [Example 133] | −6% |
| < 1 nM | > 50 nM | – | < 500 nM | – | – | – | – | Cc1c(F)cccc1S(=O)(=O)Nc1ccc(F)c(Nc2ncnc3cnc(-n4nc(C(=O)N5CCN(C)CC5)c5ccccc54)nc23)c1F [Example 104] | – |
| < 1 nM | < 10 nM | 500 to 1000 nM | – | – | – | – | – | Cc1c(F)cccc1S(=O)(=O)Nc1ccc(F)c(Nc2ncnc3cnc(-n4cc(C(=O)N5CCC[C@H](O)C5)c5ccccc54)nc23)c1F [Example 103] | −9.9% |
| > 10 nM | 10 to 50 nM | < 500 nM | – | – | – | – | – | O=S(=O)(Nc1ccc(F)c(Nc2ncnc3cnc(-n4cnc5c(N6CC(CF)C6)cccc54)nc23)c1F)c1cccc(Cl)c1Cl [Example 140] | −16% |
| – | – | – | – | 1 to 10 nM | < 10 nM | 1000 to 10000 nM | −2.7% | O=S(=O)(Nc1cc(F)c(F)c(Nc2ncnc3cnc(-n4nnc5ccccc54)nc23)c1F)c1cccc(Cl)c1Cl [Example 161] | – |
| > 10 nM | 10 to 50 nM | < 500 nM | – | – | – | – | – | O=S(=O)(Nc1ccc(F)c(Nc2ncnc3cnc(-n4nnc5c(N6CCC7(CCCO7)CC6)cccc54)nc23)c1F)c1cccc(Cl)c1Cl [Example 138] | 1% |
| < 1 nM | 10 to 50 nM | < 500 nM | – | – | – | – | – | Cc1c(F)cccc1S(=O)(=O)Nc1ccc(F)c(Nc2ncnc3cnc(-n4cc(C(=O)N(C)C)c5ccccc54)nc23)c1F [Example 97] | −6.3% |
| 1 to 10 nM | < 10 nM | < 500 nM | – | – | – | – | – | N#CC1CCN(c2cccc3c2ncn3-c2ncc3ncnc(Nc4c(F)ccc(NS(=O)(=O)c5cccc(Cl)c5Cl)c4F)c3n2)CC1 [Example 132] | −4% |
| > 10 nM | 10 to 50 nM | 1000 to 10000 nM | – | – | – | – | – | CCc1ccccc1S(=O)(=O)Nc1ccc(F)c(Nc2ncnc3cnc(-n4cnc5ccccc54)nc23)c1F [Example 148] | −1% |
| 1 to 10 nM | < 10 nM | < 500 nM | – | – | – | – | – | CCC1(O)CCN(c2cccc3c2nnn3-c2ncc3ncnc(Nc4c(F)ccc(NS(=O)(=O)c5cccc(Cl)c5Cl)c4F)c3n2)CC1 [Example 136] | 19% |
| 1 to 10 nM | < 10 nM | < 500 nM | – | – | – | – | – | Nc1cccc2c1nnn2-c1ncc2ncnc(Nc3c(F)ccc(NS(=O)(=O)c4cccc(Cl)c4Cl)c3F)c2n1 [Example 94] | 7.7% |
| 1 to 10 nM | < 10 nM | < 500 nM | – | – | – | – | – | CN(CCO)c1cccc2c1ncn2-c1ncc2ncnc(Nc3c(F)ccc(NS(=O)(=O)c4cccc(Cl)c4Cl)c3F)c2n1 [Example 134] | 8% |
| < 1 nM | 10 to 50 nM | < 500 nM | – | – | – | – | – | Cc1c(F)cccc1S(=O)(=O)Nc1ccc(F)c(Nc2ncnc3cnc(-n4nc(C(=O)N5CCOCC5)c5ccccc54)nc23)c1F [Example 110] | −3.7% |
| < 1 nM | 10 to 50 nM | < 500 nM | – | – | – | – | – | Cc1c(F)cccc1S(=O)(=O)Nc1ccc(F)c(Nc2ncnc3cnc(-n4nc(C(=O)N(C)Cc5ccncc5)c5ccccc54)nc23)c1F [Example 106] | −2.3% |

| IC50 ([1]; Table 3) | IC50 ([2]; Table 3) | IC50 ([3]; Table 3, 1 h treatment) | IC50 ([3]; Homo sapiens, HCT-116, Table 3, 1 h treatment) | IC50 ([1]; BRAF biochemical kinase assay) | IC50 ([2]; CRAF biochemical kinase assay) | IC50 ([3]; HCT116 cells, pERK) | HCT116 pERK % Ymin (lowest value of the IC50 curve) ([3]; HCT116 cells) | Compound | HCT116 (Ymin %) ([3]; Table 3) |
| --- | --- | --- | --- | --- | --- | --- | --- | --- | --- |
| 1 to 10 nM | < 10 nM | < 500 nM | – | – | – | – | – | CCC1(O)CCN(c2cccc3c2ncn3-c2ncc3ncnc(Nc4c(F)ccc(NS(=O)(=O)c5cccc(Cl)c5C(F)(F)F)c4F)c3n2)CC1 [Example 158] | −1% |
| 1 to 10 nM | 10 to 50 nM | < 500 nM | – | – | – | – | – | O=S(=O)(Cc1ccncc1)c1cn(-c2ncc3ncnc(Nc4c(F)ccc(NS(=O)(=O)c5cccc(Cl)c5Cl)c4F)c3n2)c2ccccc12 [Example 143] | −7% |
| < 1 nM | 10 to 50 nM | – | – | – | – | – | – | Cc1c(F)cccc1S(=O)(=O)Nc1ccc(F)c(Nc2ncnc3cnc(-n4cc(C(=O)N5CCN(C)CC5)c5ccccc54)nc23)c1F [Example 99] | (−3.6) % |
| < 1 nM | < 10 nM | < 500 nM | – | – | – | – | – | O=S(=O)(Nc1ccc(F)c(Nc2ncnc3cnc(-n4cc(S(=O)(=O)C5CCOCC5)c5ccccc54)nc23)c1F)c1cccc(Cl)c1Cl [Example 142] | −15% |
| 1 to 10 nM | > 50 nM | 1000 to 10000 nM | – | – | – | – | – | Cc1cccc(S(=O)(=O)Nc2ccc(F)c(Nc3ncnc4cnc(-n5cnc6ccccc65)nc34)c2F)c1Cl [Example 152] | −15% |
| – | – | – | – | 1 to 10 nM | < 10 nM | < 500 nM | −9% | O=S(=O)(Nc1cc(F)c(F)c(Nc2ncnc3cnc(-n4cnc5ccccc54)nc23)c1F)c1cccc(Cl)c1Cl [Example 160] | – |
| 1 to 10 nM | > 50 nM | < 500 nM | – | – | – | – | – | CCC1(O)CCN(c2cccc3c2ncn3-c2ncc3ncnc(Nc4c(F)ccc(NS(=O)(=O)c5ccc(F)c(F)c5C)c4F)c3n2)CC1 [Example 155] | −8% |
| > 10 nM | 10 to 50 nM | 1000 to 10000 nM | – | – | – | – | – | COc1ccc(S(=O)(=O)Nc2ccc(F)c(Nc3ncnc4cnc(-n5nnc6ccccc65)nc34)c2F)c(C)c1F [Example 118] | −14% |
| 1 to 10 nM | < 10 nM | < 500 nM | – | – | – | – | – | Cc1c(Cl)cccc1S(=O)(=O)Nc1ccc(F)c(Nc2ncnc3cnc(-n4cnc5ccccc54)nc23)c1F [Example 127] | 0% |
| 1 to 10 nM | < 10 nM | < 500 nM | – | – | – | – | – | CC1(O)CCN(c2cccc3c2ncn3-c2ncc3ncnc(Nc4c(F)ccc(NS(=O)(=O)c5cccc(Cl)c5Cl)c4F)c3n2)CC1 [Example 130] | −13% |
| 1 to 10 nM | < 10 nM | 500 to 1000 nM | – | – | – | – | – | O=S(=O)(Nc1ccc(F)c(Nc2ncnc3cnc(-n4cnc5ccccc54)nc23)c1F)c1cccc(Cl)c1C(F)(F)F [Example 156] | – |
| 1 to 10 nM | 10 to 50 nM | < 500 nM | – | – | – | – | – | COc1ccc(S(=O)(=O)Nc2ccc(F)c(Nc3ncnc4cnc(-n5cnc6ccccc65)nc34)c2F)c(C)c1Cl [Example 115] | 2% |
| 1 to 10 nM | < 10 nM | < 500 nM | – | – | – | – | – | Cc1c(F)cccc1S(=O)(=O)Nc1ccc(F)c(Nc2ncnc3cnc(-n4nnc5c(N)cccc54)nc23)c1F [Example 93] | 1.3% |
| < 1 nM | < 10 nM | < 500 nM | – | – | – | – | – | O=S(=O)(Nc1ccc(F)c(Nc2ncnc3cnc(-n4cnc5ccccc54)nc23)c1F)c1scc(Cl)c1Cl [Example 157] | 0% |
| 1 to 10 nM | < 10 nM | 1000 to 10000 nM | – | – | – | – | – | Cc1c(Cl)cccc1S(=O)(=O)Nc1ccc(F)c(Nc2ncnc3cnc(-n4nnc5ccccc54)nc23)c1F [Example 124] | −9% |
